Reference: US20250002463A1, “NEW SALT FORMS OF AMILORIDE AND ITS DERIVATIVES FOR PHARMACEUTICAL USE” (PSOMRI Holding AB, priority 2021, published 2025)
Blank lines part the entries; values can stand above or below the molecule they belong to.

Key:
[1] = Polymorphism: solid forms found in salt screen by HT-XRPD; type: physicochemical; details: Example 1 salt screen in MeOH, DME, THF
Procedure: The precipitated solids were analyzed by high throughput X-ray powder diffractometry (HT XRPD). Liquid phases (both solutions and mother liquors) were evaporated at ambient conditions and the residual solids were analyzed by HT XRPD.
The salt screen experiments were carried out in methanol (MeOH), 1,2-dimethoxyethane (DME) and tetrahydrofuran (THF).

physchem = assay: physchem
Procedure: The aqueous solubility of the salts was estimated qualitatively by the solvent aliquot addition method. Aliquots of water up to 500-600 μL were added to approximately 5 mg of salt. The solubility of the free base was also estimated.
The suspensions were let equilibrating at room temperature for 24 h. Afterwards, solids were separated from the liquid phases. The liquid phases were filtered and analyzed by HPLC to determine the solubility. The pH of solutions/mother liquors was also measured.
Suspensions of the two salts were prepared in water with a concentration of 9-10 mg/mL. The mixtures were let equilibrating at RT for 24 h. Afterwards, solids were separated from the liquid phases. The liquid phases were filtered and analyzed by HPLC to determine the solubility. The pH of mother liquors was also measured.

[2] = Qualitative solubility of benzamil free base in solvents (aliquot addition); type: physicochemical
[3] = Thermal stability of benzamil in solution (UPLC MS); type: physicochemical; details: ethanol, ~0.5 mg/mL, 1 h
Procedure: The thermal stability of benzamil was evaluated in three solvent systems: acetonitrile:water 1:1, ethanol, and 0.1 M HCl. Solutions of benzamil (˜0.5 mg/mL) were prepared in the selected solvents and split over 3 vials. The solutions were stirred at room temperature, 50° C. and 80° C. for one hour and then analyzed by UPLC MS. The chemical purity of benzamil measured in the solutions incubated at 50° C. and 80° C. for 1 h was compared to that measured initially in the starting solutions.

[4] = Hygroscopicity by Dynamic Vapor Sorption (DVS); type: physicochemical
Procedure: The hygroscopic behaviour of the salts was evaluated through Dynamic Vapor Sorption (DVS) measurements with an RH profile 40-95-0-40% at 25° C. and a dm/dt of 0.002. The classification of the hygroscopic behaviour is based on the water vapour uptake at 25° C./80% RH in first adsorption cycle of sorption isotherm.

[5] = Physical stability under Accelerated Aging Conditions (AAC, 40° C./75% RH, 2 days), HT-XRPD
Procedure: The solids were separated from the liquid phases by centrifugation, dried overnight under vacuum at 50° C. and analyzed by HT-XRPD. Solvents from the remaining mother liquors and solutions were evaporated under ambient conditions (evaporative crystallization experiments) and the residual solids were analyzed by HT-XRPD.
Slurries of the amorphous solids (GEN9 and GEN16, respectively) were prepared in 15 solvents at room temperature. The suspensions were subjected to a temperature profile, which comprised of three heating and cooling cycles. At the end of the temperature profile, the solids were isolated by centrifugation and dried at ambient conditions and under vacuum at 50° C. Upon completion of all crystallization experiments, all solids were analyzed by HT-XRPD.

[6] = Aqueous solubility at RT, Example 2 (water aliquot addition up to 1600 μL); type: physicochemical; details: suspension in 1600 μL water heated to 50° C. for 15 min
Procedure: Aqueous solubility was determined for the anhydrous and hydrated salt forms, as well as for the salts found after the stability study. Aliquots of water were added to the solid salts until dissolution occurred or 1600 μL of water was added. The lactate salt was taken along in the solubility studies as a reference. […] The results (in mg/mL free base dissolved for better comparison between salt forms) of the solubility determination performed in water are reported in Table 9.
Upon completion of the solubility determination, the remaining solids were separated from the liquid phases and allowed to air dry. Dried solids were analyzed by HT-XRPD.

[7] = Crystallinity of salt forms by HT-XRPD; type: physicochemical; details: salt screen solid forms

Polymorphism [1]: Yes | Water solubility (physchem): practically insoluble | solubility at 24 h (physchem; water, thermodynamic from solid): < 100 µg/mL | qualitative solubility ([2]; 1,2-dimethoxyethane): slightly soluble | effect of temperature on solubility ([2]; THF suspension, 50° C. for 30 min): slightly improved the solubility | qualitative solubility ([2]; methanol): slightly soluble | qualitative solubility ([2]; most of the tested solvents (ethanol, water, 1,4-dioxane, acetonitrile, TBME, heptane, ethylacetate, THF), approximately 3 mg/mL): insoluble | chemical stability in solution ([3]; 50° C.): stable | chemical stability in solution ([3]; 80° C.): some chemical degradation was observed
Structure (SMILES): NC(=NCc1ccccc1)NC(=O)c1nc(Cl)c(N)nc1N [Benzamil free base, 3,5-diamino-N—(N′-benzylcarbamimidoyl)-6-chloropyrazine-2-carboxamide]

Structure (SMILES): CC(=O)O.NC(=NC(=O)c1nc(Cl)c(N)nc1N)NCc1ccccc1 [ACA1]
Polymorphism [1]: Yes | Water solubility (physchem; Example 1, RT, aliquot addition (ranges) or HPLC after 24 h, not in Table 3): 15 to 19 mg/mL | water vapour uptake ([4]; 25° C./80% RH, first adsorption cycle): 0.1% | classification of hygroscopic behaviour ([4]; based on water vapour uptake at 25° C./80% RH): non hygroscopic | Physically stable after AAC ([5]; Example 1, 40° C./75% RH for 2 days): physically stable and Yes

Structure (SMILES): Br.N=C(NCc1ccccc1)NC(=O)c1nc(Cl)c(N)nc1N [HBR1]
dissolution in water after heating [6]: dissolved | Physical Stability ([5]; AAC 40° C./75% RH, 2 days, re-analyzed by HT-XRPD): Stable | physical stability upon exposure to AAC ([5]; Example 2, 40° C./75% RH for 2 days): physically stable | Crystallinity [7]: Moderate

Structure (SMILES): Cl.NC(=NC(=O)c1nc(Cl)c(N)nc1N)NCc1ccccc1 [Mono-HCl (ref)]
Concentration FB (physchem): 2.4 to 3.0 mg/mL
